Several values for one entry are separate records, joined by “and”; a condition that tells them apart may be missing. Equal entries are not always repeated.
What was measured:
[1] = molecular target: T1, transcortin (charcoal treated rabbit serum) (Oryctolagus cuniculus, UniProt P23775); assay: Assay for cortisol using 2-methylseleno-1-dehydro-cortisol-21-acetate-Se75; type: binding; conditions: for Counts - BKG in 300 sec: 2.5 ng label
T1 construct: charcoal treated rabbit serum; from tissue; host or cells: rabbit serum, charcoal treated
T1 sequence (P23775 1-383): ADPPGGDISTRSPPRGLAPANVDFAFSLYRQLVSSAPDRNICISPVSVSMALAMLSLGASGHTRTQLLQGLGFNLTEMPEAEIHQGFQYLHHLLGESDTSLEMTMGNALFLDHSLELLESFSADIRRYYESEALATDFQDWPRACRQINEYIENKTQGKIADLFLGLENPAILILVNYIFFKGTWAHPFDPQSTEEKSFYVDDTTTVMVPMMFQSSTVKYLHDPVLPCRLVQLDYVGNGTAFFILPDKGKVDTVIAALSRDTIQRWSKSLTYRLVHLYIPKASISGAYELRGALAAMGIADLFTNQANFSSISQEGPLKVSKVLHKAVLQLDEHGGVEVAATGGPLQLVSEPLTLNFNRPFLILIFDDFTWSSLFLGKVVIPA
Protocol: (§1) Into each glass assay tube was dispensed glycine buffer containing 1% sodium azide (pH 9.0; 5.5 ml), charcoal treated rabbit serum (50 μl), bis-2,2'-(21-acetoxy-1-dehydrocortisol)-diselenide-Se 75 (2.3 ng, sp. activity ca 6 Ci/m atom), and Sephadex G25 (1 g). […] The tubes were capped and rotated at room temperature for 1 hour using a blood cell suspension mixer. After this time an aliquot (1 ml) of the supernatant liquid was withdrawn from each tube and counted for 300 seconds using an NE8311 gamma counter.
Into each glass assay tube was dispensed 0.05M phosphate buffer containing sodium azide 1% (pH 7.4; 6 ml), charcoal treated rabbit serum (50 μl), 2-methylseleno-1-dehydrocortisol-21-acetate-Se75) (2.5 ng; sp. activity ca 3 Ci/m atom), and Sephadex G25 (1 g).
The assay procedure was identical with that described above.

[2] = tested on: antiserum raised to digoxin; assay: Dilution curve for 3-methylselenodigoxigenin; type: binding; conditions: for Mean Count: 200 μl supernatant
Protocol: An antiserum dilution curve for 3-methylselenodigoxigenin-Se 75 (specific activity 16 Ci/m mol) in buffered saline (0.15M NaCl, 0.05M KH2 PO4, 0.1% Na N3, and 0.1% BSA) was made up at a concentration of 0.0228 n mol/ml. Dilutions of antiserum raised to digoxin were prepared in assay buffer at 1/50, 1/100, 1/200, 1/400, 1/500, 1/800, 1/1000. Tubes were set up in duplicate for total activity, blanks, and antiserum dilutions as follows: total activity, 50 μl ^75 Se compound and 250 μl assay buffers; blanks, 50 μl ^75 Se compound and 150 μl assay buffer; antiserum dilutions, 50 μl ^75 Se compound, 100 μl buffer and 50 μl antiserum. The tubes were incubated for 30 minutes after which 100 μl of charcoal (0.65 g Norit OL in 50 ml assay buffer + 1 gram BSA) was added to each tube except the totals. After 10 minutes incubation the tubes were centrifuged and a 200 μl sample of the supernatant was counted.

[3] = molecular target: T2, Transcortin from rabbit serum (Oryctolagus cuniculus, UniProt P23775); assay: CPB assay for cortisol using Se-75 labelled bis-2,2'-(1-dehydrocorticosterone)-diselenide; type: binding
T2 construct: Transcortin from rabbit serum; from tissue; host or cells: rabbit serum
T2 sequence (P23775 1-383): T1 sequence (P23775 1-383)
Protocol: as §1
Se-75 labelled bis-2,2'-(1-dehydrocorticosterone)-diselenide was prepared by base hydrolysis of Se75-labelled bis-2,2'-(21-acetoxy-1-dehydrocorticosterone) diselenide which is described in our U.S. Ser. No. 426,695.
Using this radiolabelled material an assay for cortisol was set up as described in Example 1. Transcortin from rabbit serum was used as the source of binding protein and Sephadex G25 was used to separate protein free and bound material.
Typical results obtained using standard solutions of unlabelled cortisol to displace the labelled Δ^1 -corticosterone diselenide are: […]

[4] = tested on: antiserum raised in rabbits against estriol-6-CMO-BSA; assay: Assay for estriol using 2-(methylseleno)-ethylamine-Se75 conjugate of estriol-6CMO; type: binding, rabbit; conditions: 300 pg label, antiserum 1:200
Protocol: Into each assay tube was dispensed 0.1M phosphate buffer containing 5% human serum (pH 7.0; 200 μl), antiserum raised in rabbits against estriol-6-CMO-BSA and diluted 1 : 200 in 0.1M phosphate buffer containing 5% human serum (200 μl), and 2-(methylseleno)-Ethylamine-Se 75 conjugate of estriol-6-CMO (300 pg; 18 Ci/m mol).

[5] = molecular target: T1, transcortin (charcoal treated rabbit serum); assay: Assay for cortisol using Se-75 labelled bis-2,2'-(21-acetoxy-1-dehydrocortisol)-diselenide (competitive protein binding, Sephadex G25 separation); conditions: 2.3 ng label, 1 ml supernatant
Protocol: as §1

[6] = molecular target: T1, transcortin (charcoal treated rabbit serum); assay: Assay for cortisol - the use of β-mercaptoethanol in situ, tubes stored before use; type: binding
Protocol: as §1
Bis-2,2'-(21-acetoxy-1-dehydrocortisol)-diselenide-Se75 (100ng) in ethanol (10 ul) was added with stirring to a solution of β-mercaptoethanol (20 μl) in 0.05M phosphate buffer (pH 7.4; 1 ml). The mixture was left at room temperature for 20 minutes and then was added to a solution of 0.05M phosphate buffer (pH 7.4; 480 ml) containing sodium azide (1%) and charcoal treated rabbit serum (2 ml). After thorough mixing this solution was dispensed (in 6 ml aliquots) into glass assay tubes each containing Sephadex G25 (1 g). The tubes were capped and stored at room temperature until required, when the assay was then carried out as described above.

[7] = tested on: Antisera raised in rabbits to testosterone 3-carboxymethyloxime-BSA; assay: Radioimmunoassay for testosterone, antiserum dilution curve; type: binding, rabbit; conditions: for % Bound: 25pg label per assay tube
Protocol: Antisera were raised in rabbits to testosterone 3-carboxymethyloxime-BSA.
SE75 labelled 2-methylseleno-1-dehydrotestosterone (specific activity 15-20 Ci/mmol) was prepared by base catalysed hydrolysis of 2-methylseleno 1-dehydrotestosterone acetate which is described in our prior patent specification.
Antiserum dilution curves were set up in the usual way using antiserum and labelled testosterone as described above.
Typical figures for the antiserum dilution curves when 25pg labelled testosterone was used per assay tube are: […]

C[75Se]C1=C[C@@]2(C)C(=CC1=O)CC[C@@H]1[C@@H]2[C@@H](O)C[C@@]2(C)[C@H]1CC[C@]2(O)C(=O)COC(C)=O [2-methylseleno-1-dehydrocortisol-21-acetate-Se75]
Counts - BKG in 300 sec ([1]; cortisol standard 0 μg/100 ml): 37447 and 37551
Counts - BKG in 300 sec ([1]; cortisol standard 2 μg/100 ml): 36495 and 36981
Counts - BKG in 300 sec ([1]; cortisol standard 4 μg/100 ml): 35381 and 34565
Counts - BKG in 300 sec ([1]; cortisol standard 8 μg/100 ml): 31090 and 32353
Counts - BKG in 300 sec ([1]; cortisol standard 16 μg/100 ml): 28011 and 28180
Counts - BKG in 300 sec ([1]; cortisol standard 32 μg/100 ml): 24135 and 24340
Counts - BKG in 300 sec ([1]; cortisol standard 64 μg/100 ml): 21601 and 21777
dose-response curve of the cortisol assay ([1]; methylseleno- compared with the diseleno- derivative as label): steeper dose-response curve

C[75Se]C1CC[C@@]2(C)[C@H](CC[C@@H]3[C@@H]2C[C@@H](O)[C@]2(C)[C@@H](C4=CC(=O)OC4)CC[C@]32O)C1 (some centres unmarked) [3-methylselenodigoxigenin-Se 75]
% of Total Counts Bound ([2]; antiserum 1/50 dilution): 97.0%
Mean Count ([2]; antiserum 1/50 dilution): 20750
% of Total Counts Bound ([2]; antiserum 1/100 dilution): 80.6%
Mean Count ([2]; antiserum 1/100 dilution): 17224
% of Total Counts Bound ([2]; antiserum 1/200 dilution): 44.3%
Mean Count ([2]; antiserum 1/200 dilution): 9489
% of Total Counts Bound ([2]; antiserum 1/400 dilution): 26.8%
Mean Count ([2]; antiserum 1/400 dilution): 5744
% of Total Counts Bound ([2]; antiserum 1/500 dilution): 21.8%
Mean Count ([2]; antiserum 1/500 dilution): 4659
% of Total Counts Bound ([2]; antiserum 1/800 dilution): 15.3%
Mean Count ([2]; antiserum 1/800 dilution): 3277
% of Total Counts Bound ([2]; antiserum 1/1000 dilution): 12.2%
Mean Count ([2]; antiserum 1/1000 dilution): 2602

C[C@]12C[C@H](O)[C@H]3[C@@H](CCC4=CC(=O)C([75Se][75Se]C5=C[C@@]6(C)C(=CC5=O)CC[C@@H]5[C@@H]6[C@@H](O)C[C@]6(C)[C@@H](C(=O)CO)CC[C@@H]56)=C[C@@]43C)[C@@H]1CC[C@@H]2C(=O)CO [bis-2,2'-(1-dehydrocorticosterone)-diselenide]
Counts - Bkgd ([3]; cortisol standard 2 μg/100 ml): 24700
Counts - Bkgd ([3]; cortisol standard 4 μg/100 ml): 24100
Counts - Bkgd ([3]; cortisol standard 8 μg/100 ml): 22800
Counts - Bkgd ([3]; cortisol standard 16 μg/100 ml): 21800
Counts - Bkgd ([3]; cortisol standard 32 μg/100 ml): 21200
Counts - Bkgd ([3]; cortisol standard 64 μg/100 ml): 20700

C[75Se]CCNC(=O)CON=C1C[C@@H]2[C@H](CC[C@]3(C)[C@@H](O)[C@H](O)C[C@@H]23)c2ccc(O)cc21 [2-(methylseleno)-ethylamine - Se 75 conjugate of estriol-6-carboxymethyloxime]
% of total counts bound minus blanks ([4]; 0 ng estriol added): 45.9%
% of total counts bound minus blanks ([4]; 1.5 ng estriol added): 37.5%
% of total counts bound minus blanks ([4]; 3.1 ng estriol added): 35.6%
% of total counts bound minus blanks ([4]; 6.3 ng estriol added): 32.0%
% of total counts bound minus blanks ([4]; 12.5 ng estriol added): 29.2%
% of total counts bound minus blanks ([4]; 25 ng estriol added): 24.7%

CC(=O)OCC(=O)[C@@]1(O)CC[C@H]2[C@@H]3CCC4=CC(=O)C([75Se][75Se]C5=C[C@@]6(C)C(=CC5=O)CC[C@@H]5[C@@H]6[C@@H](O)C[C@@]6(C)[C@H]5CC[C@]6(O)C(=O)COC(C)=O)=C[C@]4(C)[C@H]3[C@@H](O)C[C@@]21C [bis-2,2'-(21-acetoxy-1-dehydrocortisol)-diselenide-Se 75]
Counts - Rkgd in 300 sec ([5]; cortisol standard 0 μg/100 ml): 34672 and 33573
Counts - Rkgd in 300 sec ([5]; cortisol standard 2 μg/100 ml): 31116 and 32296
Counts - Rkgd in 300 sec ([5]; cortisol standard 4 μg/100 ml): 31129 and 31389
Counts - Rkgd in 300 sec ([5]; cortisol standard 8 μg/100 ml): 29987 and 30954
Counts - Rkgd in 300 sec ([5]; cortisol standard 16 μg/100 ml): 29141 and 29356
Counts - Rkgd in 300 sec ([5]; cortisol standard 32 μg/100 ml): 26842 and 25739
Counts - Rkgd in 300 sec ([5]; cortisol standard 64 μg/100 ml): 23746 and 25895
Counts per 100 seconds (corrected for background) ([6]; cortisol standard 2 μg/100 ml, storage time 1 day): 12814 and 13112
Counts per 100 seconds (corrected for background) ([6]; cortisol standard 2 μg/100 ml, storage time 28 days): 13007 and 12356
Counts per 100 seconds (corrected for background) ([6]; cortisol standard 4 μg/100 ml, storage time 1 day): 13012
Counts per 100 seconds (corrected for background) ([6]; cortisol standard 4 μg/100 ml, storage time 28 days): 11884
Counts per 100 seconds (corrected for background) ([6]; cortisol standard 8 μg/100 ml, storage time 1 day): 12754 and 12709
Counts per 100 seconds (corrected for background) ([6]; cortisol standard 8 μg/100 ml, storage time 28 days): 11486 and 11624
Counts per 100 seconds (corrected for background) ([6]; cortisol standard 16 μg/100 ml, storage time 1 day): 11980 and 11825
Counts per 100 seconds (corrected for background) ([6]; cortisol standard 16 μg/100 ml, storage time 28 days): 10930 and 10467
Counts per 100 seconds (corrected for background) ([6]; cortisol standard 32 μg/100 ml, storage time 1 day): 10988 and 10876
Counts per 100 seconds (corrected for background) ([6]; cortisol standard 32 μg/100 ml, storage time 28 days): 10078 and 10365
Counts per 100 seconds (corrected for background) ([6]; cortisol standard 64 μg/100 ml, storage time 1 day): 9636
Counts per 100 seconds (corrected for background) ([6]; cortisol standard 64 μg/100 ml, storage time 28 days): 9967

C[75Se]C1=C[C@@]2(C)C(=CC1=O)CC[C@H]1[C@@H]3CC[C@H](O)[C@@]3(C)CC[C@@H]12 [2-methylseleno-1-dehydrotestosterone]
antiserum dilution curves compared with tritiated testosterone as label [7]: identical to those obtained when tritiated testosterone was used as label
% Bound ([7]; antiserum dilution 1/10^2): 85%
% Bound ([7]; antiserum dilution 1/10^3): 80%
% Bound ([7]; antiserum dilution 1/10^4): 45%
% Bound ([7]; antiserum dilution 1/10^5): 18%
% Bound ([7]; antiserum dilution 1/10^6): 13%

Source: US4030886A, “Saturation analysis” (The Radiochemical Centre Limited, priority 1973, dated 1977)
